Assay [1] deals with LT-HSCs. Put plainly: CFU assay of LT-HSCs sorted from fetal livers of treated embryos. The format is in vivo, mice. The note with it: DCA-treated embryos vs control and UK5099. On the procedure:
For fetal liver analysis, pregnant female C57Bl/6xB6.SJL mice were injected intraperitoneally at E9.5 with UK5099 (4 mg/kg) or DCA (200 mg/kg) or PBS (control). Embryos were harvested at E14.5 and individually weighed and processed. Fetal livers were dissected and homogenised in 800 μL ice cold PBS supplemented with 2% fetal bovine serum (FBS) and FL cells were washed in PBS with 2%/FBS. For the differentiated lineage panel, cells were stained with B220 and CD19 (B-cell markers)-PE, CD3e-APC, Ter119-PeCy7 and CD71-FITC and analyzed on a BD FACSARIA III. For the HSC panel, samples were first treated with ammonium chloride solution (STEMCELL Technologies, France) to lyse red blood cells, washed twice in ice cold PBS with 2% FBS, stained with CD3e, B220, Ter119, Gr1 (Lineage)-PeCy5, c-Kit-Efluor780, Sca1-BV421, CD48-FITC, CD150-BV605 and 7-AAD (for dead cell exclusion) and analyzed on a BD FACSARIA III. […] For plating of CFU assays, 100 LT-HSCs were sorted (gating strategy shown in FIG. 11, e) and resuspended in 3.0 mL Methocult M3434 (STEMCELL Technologies, France). Each mixture was divided onto 2 wells of a non-tissue culture treated 6-well plate. Following a 14-day incubation in a humidified incubator at 37° C., 5% CO2, 20% O2, colonies were morphologically distinguished and scored. […] Cells were stained with anti-cKit and anti-CD45 antibodies and analyzed on a BD LSRFortessa. […]

Assay [2] deals with HSC-like cells. Description: HSC-like cell subculture with metabolic regulators, flow cytometry. The assay is classed as cell-based, human. The note with it: day 3, UK5099 10 μM. From the text: The RB9-CB1 human iPSC line (Woods, N.-B. et al. Brief report: efficient generation of hematopoietic precursors and progenitors from human pluripotent stem cell lines. Stem Cells 29, 1158-1164 (2011)) was co-cultured with mouse embryonic fibroblasts (MEFs, Millipore), passaged every six days and processed to form embryoid bodies (EBs) as described previously (Guibentif, C. et al. Single-Cell Analysis Identifies Distinct Stages of Human Endothelial to-Hematopoietic Transition. Cell Reports 19, 10-19 (2017)). The differentiation protocol used in this study was previously described (Ditadi, A. & Sturgeon, C. M. Directed differentiation of definitive hemogenic endothelium and hematopoietic progenitors from human pluripotent stem cells. Methods 101, 65-72 (2016)), however, small modifications were made to induce both primitive and definitive hematopoiesis, as indicated below and in FIG. 6, a. Newly-formed EBs were first kept in SFD medium supplemented with 1 ng/ml Activin A (on days 0-2) and 3 μM CHIR99021 (on day 2 only). At day 3, media was switched to “Day 3-SP34” medium supplemented with 1 ng/ml Activin A (on day 3 only) and 3 μM CHIR99021 (on day 3 only) until day 6. On day 6, media was replaced by “Day 6-SP34” medium, until day 8. […]
A general note: Flow cytometry measures light scatter and fluorescence of single cells or particles in a stream.

2 compounds from US20250129334A1, “LINEAGE SPECIFICATION DURING STEM CELL TRANSITION” (Amniotics AB, priority 2021, published 2025) can be followed below.

In the case of `O=C(O)C(Cl)Cl` [DCA, dichloroacetate], the “decrease in the BFU-E to CFU-GM ratio” value in assay [1] worked out at 80%.

On to `N#CC(=Cc1cn(-c2ccccc2)c2ccccc12)C(=O)O` [UK5099, 2-Cyano-3-(1-phenyl-1H-indol-3-yl)-2-propenoic acid], for which, in assay [2], the “CD43+GPA+ cell output” value is on record as “absence of bias”.
